Test results as given in patent publication EP1017810B1, “AGONIST AND ANTAGONIST PEPTIDES OF CARCINOEMBRYONIC ANTIGEN (CEA)” (THE GOVERNMENT OF THE UNITED STATES OF AMERICA, as …, priority 1997, dated 2004).
Where no end group is shown, it is not given here.

test system: CEA CTL T-Vac8; assay: initial screening cytotoxicity assay, 111In release from peptide-incubated C1R-A2 cells with T-Vac8 CTL; assay type: cell-based, human; details: peptide at 1, 0.1 and 0.01 µg/ml, E:T=1.45:1, 4 hours

Row | Compound | activation of T-Vac8 cytotoxicity (lysis of peptide-incubated targets)
1 | CC[C@H](C)[C@H](NC(=O)[C@H](CC(N)=O)NC(=O)[C@H](C)NC(=O)CNC(=O)[C@H](CO)NC(=O)[C@H](CC(C)C)NC(=O)[C@@H](N)Cc1ccc(O)cc1)C(=O)N[C@@H](CC(N)=O)C(=O)N[C@@H](CC(C)C)C(=O)O [CAP1-7I] | appeared to be active
2 | YLSGFNLNL [CAP1-5F] | provided stimulation, albeit at reduced levels compared to CAP1 itself
3 | YLSGINLNL [CAP1-5I] | provided stimulation, albeit at reduced levels compared to CAP1 itself
4 | CC(C)C[C@H](NC(=O)[C@H](CC(N)=O)NC(=O)[C@H](CC(C)C)NC(=O)[C@H](CC(=O)O)NC(=O)[C@H](C)NC(=O)CNC(=O)[C@H](CO)NC(=O)[C@H](CC(C)C)NC(=O)[C@@H](N)Cc1ccc(O)cc1)C(=O)O [CAP1-6D] | equal to or better than CAP1
5 | YLSGSNLNL [CAP1-5S] | provided stimulation, albeit at reduced levels compared to CAP1 itself
6 | YLSGACLNL [CAP1-6C] | equal to or better than CAP1
